Reference: patent US20120225909A1, “INDAZOLE ANALOG” (priority 2009, published 2012)

How the values were obtained:
[1] = biological target: T1, human β3-adrenergic receptor (Homo sapiens, UniProt P13945); assay: Test Case 1-B: human β3-adrenergic receptor agonist activity (cAMP-Screen, 96-well); type: cell-based; conditions: for Emax: 0.5 h, read-out: β3 receptor I.A.; for EC50 / β3 receptor I.A.: Test Case 1-B; for EC50: CHO cells, cAMP; for β3 receptor I.A.: maximum response of isoproterenol = 100%
T1 construct: A full-length human β3 gene is obtained from a human genomic library (made by Clontech) using this as the probe; expressed in transfected cells; host or cells: CHO (Chinese hamster ovary) cells, pcDNA3
Protocol: Measurement of Human β3-Adrenergic Receptor Agonist Activity
The human β3-adrenergic receptor agonist activity is measured using CHO (Chinese hamster ovary) cells transfected by a human β3 gene inserted in pcDNA3 (Invitrogen). […] A full-length human β3 gene is obtained from a human genomic library (made by Clontech) using this as the probe. These cells are cultured in Ham's F-12 medium containing 10% fetal calf serum and 400 μg/mL genectin (Invitrogen). These cells are sown in 96-well plates to make 2×10^4 cells/well. After culturing for approximately 20 hours, they are allowed to stand for 15 minutes in 80 μL of serum-free Ham's F-12 medium. After first dissolving the test compound by DMSO, it is serially diluted by Ham's F-12 containing 100 mmol/L HEPES and 1 mmol/L isobutylmethylxanthine, and 20 μL is added to the cells. After culturing for 30 minutes, the medium is removed, and 0.1 mL of the assay/lysis buffer contained in the cAMP-Screen kit (made by Applied Bioscience) is added and incubated for 30 minutes at 37° C. The cAMP in this cell lysate is assayed by the above cAMP-Screen kit.

[2] = biological target: T2, human β1-adrenergic receptor (Homo sapiens, UniProt P08588); assay: Test Case 2-B: human β1-adrenergic receptor agonist activity; type: cell-based; conditions: for Emax: read-out: β1 receptor I.A.; for β1 receptor I.A.: Test Case 2-B, maximum response of isoproterenol = 100%
T2 construct: expressed in transfected cells; host or cells: CHO (Chinese hamster ovary) cells, pcDNA3
Protocol: Measurement of Human β1-Adrenergic Receptor Agonist Activity
The human β1-adrenergic receptor agonist activity is measured by the same method as in Test Case 1-B using CHO (Chinese hamster ovary) cells transfected by a human β1 gene inserted in pcDNA3 (Invitrogen).

[3] = biological target: T3, human β2-adrenergic receptor (Homo sapiens, UniProt P07550); assay: Test Case 3-B: human β2-adrenergic receptor agonist activity; type: cell-based; conditions: for Emax: read-out: β2 receptor I.A.; for β2 receptor I.A.: Test Case 3-B, maximum response of isoproterenol = 100%
T3 construct: expressed in transfected cells; host or cells: CHO (Chinese hamster ovary) cells, pcDNA3
Protocol: Measurement of Human β2-Adrenergic Receptor Agonist Activity
The human β2-adrenergic receptor agonist activity is measured by the same method as in Test Case 1-B using CHO (Chinese hamster ovary) cells transfected by a human β2 gene inserted in pcDNA3 (Invitrogen).

Male C57BL/6 Cr mice = assay: Test Case 10: mouse piloerection test; type: in vivo; conditions: 10 mg/kg i.v., Score 0
Protocol: Male C57BL/6 Cr mice (Japan SLC) are used. The dissolved compound is administered rapidly via a caudal vein. The animal is placed on the observation stand 5, 15, 30, and 60 minutes after administration, and the state of piloerection is observed. The state of piloerection is evaluated by the following 7-level scoring system according to the examples by the method of Irwin (Psychopharmacologia 1968, 13; 222-257).
Scoring system: “Score 0”: No piloerection at all; “Score 1”: Slight piloerection (piloerection on part of the body such as the back or neck); “Score 2”: Moderate piloerection (piloerection over the entire body); “Score 3”: Marked piloerection (piloerection over the entire body, conspicuous to the extent that the skin can be seen).
“Score 0.5” is between “Score 0” and “Score 1” “Score 1.5” is between […]. “Score 2.5” is between “Score 2” and “Score 3.”

[4] = biological target: T4, human α1A-adrenergic receptor (Homo sapiens, UniProt P35348); assay: Test Case 4-A: human α1A-adrenergic receptor agonist activity (HEK293, Ca flux, Fura-2); type: cell-based; set-up: expressed in transfected cells; host or cells: HEK293 cells, pcDNA3.1; conditions: for Emax: HEK293, read-out: α1A receptor I.A.; for α1A receptor I.A.: maximum response of norepinephrine = 100%
T4 sequence (P35348 1-466): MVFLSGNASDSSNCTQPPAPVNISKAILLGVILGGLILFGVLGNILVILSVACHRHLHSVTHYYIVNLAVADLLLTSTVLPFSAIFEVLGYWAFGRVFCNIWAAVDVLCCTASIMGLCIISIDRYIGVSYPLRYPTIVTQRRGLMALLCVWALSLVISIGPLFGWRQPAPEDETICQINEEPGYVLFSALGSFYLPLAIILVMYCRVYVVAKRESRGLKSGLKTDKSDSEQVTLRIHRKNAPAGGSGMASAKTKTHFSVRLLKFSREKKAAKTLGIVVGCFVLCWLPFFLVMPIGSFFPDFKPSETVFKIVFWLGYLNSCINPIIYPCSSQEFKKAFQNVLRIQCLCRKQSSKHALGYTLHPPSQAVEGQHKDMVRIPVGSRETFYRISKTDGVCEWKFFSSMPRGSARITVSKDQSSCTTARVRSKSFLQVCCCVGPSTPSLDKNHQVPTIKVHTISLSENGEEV
Protocol: Measurement of Human α1A-Adrenergic Receptor Agonist Activity
The human α1A-adrenergic receptor agonist activity is measured using HEK293 cells transfected by a human α1A gene inserted in pcDNA3.1 (Invitrogen). […] After loading for 30 minutes in a CO2 incubator, the excess Fura-2AM is removed by washing twice with assay buffer. After preparing the centrifuged cells to make 5×10^6 cells/mL by assay buffer, 80 μL/well is dispensed into 96-well UV plates (made by Corning) to make cell plates. Sample plates with the test compound diluted 10-fold by assay buffer from 10^−5 to 10^−12 M and cell plates are set in an FDSS4000 (made by Hamamatsu Photonics). After preincubating for 180 seconds, measurement of fluorescence intensity (excitation wavelength 340 nm, 380 nm, measurement wavelength 500 nm) is begun at 2-second intervals. After approximately 30 seconds of measurement, 20 μL of test sample from a sample plate is added to the cell plate, and measurement is continued for another 270 seconds. The Ca flux caused by the test compound is calculated taking the difference in the maximum value of the fluorescence intensity ratio at 340 nm and 380 nm after adding the test compound and the fluorescence intensity ratio before adding the test compound as the peak height.

T3 sequence (P07550 whole entry): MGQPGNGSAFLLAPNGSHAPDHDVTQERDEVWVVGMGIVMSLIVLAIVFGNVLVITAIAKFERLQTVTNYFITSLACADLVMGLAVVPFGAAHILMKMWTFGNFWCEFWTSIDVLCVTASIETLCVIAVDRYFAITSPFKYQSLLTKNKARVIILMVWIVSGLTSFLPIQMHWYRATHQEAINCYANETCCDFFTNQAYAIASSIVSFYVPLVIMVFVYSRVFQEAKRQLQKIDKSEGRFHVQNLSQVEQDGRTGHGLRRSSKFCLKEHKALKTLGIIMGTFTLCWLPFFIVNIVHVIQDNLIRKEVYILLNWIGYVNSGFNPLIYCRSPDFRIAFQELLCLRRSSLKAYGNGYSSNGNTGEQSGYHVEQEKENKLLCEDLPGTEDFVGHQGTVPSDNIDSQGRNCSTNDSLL
T1 sequence (P13945 whole entry): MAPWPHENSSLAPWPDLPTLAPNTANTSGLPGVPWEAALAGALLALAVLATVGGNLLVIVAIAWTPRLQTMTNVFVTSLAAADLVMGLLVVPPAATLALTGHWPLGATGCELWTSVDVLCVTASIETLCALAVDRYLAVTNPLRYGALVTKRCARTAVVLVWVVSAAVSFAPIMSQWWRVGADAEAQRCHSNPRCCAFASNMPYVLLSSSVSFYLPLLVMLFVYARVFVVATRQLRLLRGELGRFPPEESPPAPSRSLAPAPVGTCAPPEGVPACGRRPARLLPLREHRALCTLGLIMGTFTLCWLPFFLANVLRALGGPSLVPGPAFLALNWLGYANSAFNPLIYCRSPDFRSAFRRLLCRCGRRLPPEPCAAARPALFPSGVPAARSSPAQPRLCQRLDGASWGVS
T2 sequence (P08588 whole entry): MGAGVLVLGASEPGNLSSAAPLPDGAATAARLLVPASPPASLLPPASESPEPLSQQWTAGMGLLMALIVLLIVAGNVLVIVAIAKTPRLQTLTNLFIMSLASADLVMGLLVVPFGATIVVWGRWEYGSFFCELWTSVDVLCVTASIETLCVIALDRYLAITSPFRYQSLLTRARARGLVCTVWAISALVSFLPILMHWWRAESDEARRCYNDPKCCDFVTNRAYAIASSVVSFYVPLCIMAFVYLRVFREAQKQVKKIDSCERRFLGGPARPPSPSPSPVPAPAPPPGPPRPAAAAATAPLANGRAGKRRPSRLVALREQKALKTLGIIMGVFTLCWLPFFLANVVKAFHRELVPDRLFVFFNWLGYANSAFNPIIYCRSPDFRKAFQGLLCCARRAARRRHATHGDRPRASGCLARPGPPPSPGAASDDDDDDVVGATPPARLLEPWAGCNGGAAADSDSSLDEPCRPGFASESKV

SMILES: COc1n[nH]c2cc(OCCNC[C@H](O)c3cccc(NS(=O)(=O)c4cc(N)ccc4F)c3)ccc12 [ex6, (R)-5-amino-2-fluoro-N-(3-(1-hydroxy-2-(2-(3-methoxyindazol-6-yloxy)ethylamino)ethyl)phenyl)benzenesulfonamide]
- Emax [1]: 84%
- EC50 [1]: 0.7 nM
- Emax [2]: 10%
- Emax [3]: 7%
- number of experimental animals matching Score 0 (no piloerection) (Male C57BL/6 Cr mice; n=4, observation time 5 min): 4
- number of experimental animals matching Score 0 (no piloerection) (Male C57BL/6 Cr mice; n=4, observation time 15 min): 4
- number of experimental animals matching Score 0 (no piloerection) (Male C57BL/6 Cr mice; n=4, observation time 30 min): 4
- number of experimental animals matching Score 0 (no piloerection) (Male C57BL/6 Cr mice; n=4, observation time 60 min): 4
- Emax [4]: 0%

SMILES: COc1cccc(S(=O)(=O)Nc2cccc([C@@H](O)CNCCOc3ccc4c(OC)n[nH]c4c3)c2)c1 [ex43, (R)-N-(3-(1-hydroxy-2-(2-(3-methoxyindazol-6-yloxy)ethylamino)ethyl)phenyl)-3-methoxybenzene-sulfonamide]
- EC50 [1]: 15 nM
- β3 receptor I.A. [1]: 65%
- β1 receptor I.A. [2]: −2%
- β2 receptor I.A. [3]: −5%
- α1A receptor I.A. ([4]; Test Case 4-A, Table 4): 0%

SMILES: COc1n[nH]c2cc(OCCNC[C@H](O)c3cccc(NS(=O)(=O)C4CC4)c3)ccc12 [ex47, (R)-N-(3-(1-hydroxy-2-(2-(3-methoxyindazol-6-yloxy)-ethylamino)ethyl)phenyl)cyclo-propanesulfonamide]
- EC50 [1]: 41 nM
- β3 receptor I.A. [1]: 72%
- β1 receptor I.A. [2]: 3%
- β2 receptor I.A. [3]: 16%
- EC50 ([4]; Test Case 4-A, HEK293 cells, Ca flux, Table 4): 1220 nM
- α1A receptor I.A. ([4]; Test Case 4-A, Table 4): 28%

SMILES: O=S(=O)(Nc1cccc([C@@H](O)CNCCOc2ccc3c(Cl)n[nH]c3c2)c1)C1CC1 [ex152]
- Emax [1]: 104%
- EC50 [1]: 22 nM
- Emax [2]: 3%
- Emax [3]: 15%
- Emax [4]: 8%

SMILES: Cc1n[nH]c2cc(OCCNC[C@H](O)c3cccc(NS(=O)(=O)c4cccc(O)c4)c3)ccc12 [ex236, (R)-3-hydroxy-N-(3-(1-hydroxy-2-(2-(3-methylindazol-6-yloxy)ethylamino)ethyl)phenyl)benzenesulfonamide]
- Emax [1]: 58%
- EC50 [1]: 1 nM
- Emax [2]: 11%
- Emax [3]: 5%
- Emax [4]: 0%

SMILES: COc1n[nH]c2cc(OCCNC[C@H](O)c3cccc(NS(=O)(=O)c4cccc(Cl)c4)c3)ccc12 [ex42, (R)-3-chloro-N-(3-(1-hydroxy-2-(2-(3-methoxyindazol-6-yloxy)ethylamino)ethyl)phenyl) benzenesulfonamide]
- EC50 [1]: 3.8 nM
- β3 receptor I.A. [1]: 83%
- β1 receptor I.A. [2]: 4%
- β2 receptor I.A. [3]: 0%
- α1A receptor I.A. ([4]; Test Case 4-A, Table 4): 0%

SMILES: O=S(=O)(Nc1cccc([C@@H](O)CNCCOc2ccc3c(C(F)(F)F)n[nH]c3c2)c1)C1CC1 [ex181, (R)-N-(3-(1-hydroxy-2-(2-(3-(trifluoromethyl)indazol-6-yloxy)ethylamino)ethyl)phenyl) cyclopropane-sulfonamide]
- Emax [1]: 80%
- EC50 [1]: 16 nM
- Emax [2]: 1%
- Emax [3]: 8%
- Emax [4]: 4%

SMILES: Nc1cccc(S(=O)(=O)Nc2cccc([C@@H](O)CNCCOc3ccc4c(OC(F)F)n[nH]c4c3)c2)c1 [ex104]
- Emax [1]: 116%
- EC50 [1]: 0.42 nM
- Emax [2]: 8%
- Emax [3]: 4%
- Emax [4]: 0%

SMILES: CC(C)c1n[nH]c2cc(OCCNC[C@H](O)c3cccc(NS(=O)(=O)c4cccc(N)c4)c3)ccc12 [ex231, (R)-3-amino-N-(3-(1-hydroxy- ? -(2-( ? iso-propylindazol- ? - yloxy)ethylamino)ethyl)phenyl) benzene ? fonamide]
- Emax [1]: 124%
- EC50 [1]: 0.2 nM
- Emax [2]: 18%
- Emax [3]: 3%
- Emax [4]: 0%

SMILES: COc1n[nH]c2cc(OCCNC[C@H](O)c3cccc(NS(=O)(=O)c4cccc(N)c4)c3)ccc12 [ex1, (R)-3-amino-N-(3-(1-hydroxy-2-(2-(3-methoxyindazol-6-yloxy)ethylamino)ethyl)phenyl)benzenesulfonamide]
- Emax [1]: 110%
- EC50 [1]: 0.52 nM
- Emax [2]: 6%
- Emax [3]: 1%
- Emax [4]: 0%

SMILES: CNc1cccc(S(=O)(=O)Nc2cccc([C@@H](O)CNCCOc3ccc4c(C)n[nH]c4c3)c2)c1 [ex239, (R)—N-(3-(1-hydroxy-2-(2-(3-methylindazol-6-yloxy)ethylamino)ethyl)phenyl)-3-(methylamino)benzenesulfonamide]
- Emax [1]: 108%
- EC50 [1]: 16 nM
- Emax [2]: 15%
- Emax [3]: 2%
- Emax [4]: 0%

SMILES: CCc1n[nH]c2cc(OCCNC[C@H](O)c3cccc(NS(=O)(=O)c4cccc(C)c4)c3)ccc12 [ex126, (R)-N-(3-(2-(2-(3-ethylindazol-6-yloxy)ethylamino)-1-hydroxyethyl)phenyl)-3-methylbenzene-sulfonamide]
- Emax [1]: 85%
- EC50 [1]: 14 nM
- Emax [2]: 8%
- Emax [3]: 1%
- Emax [4]: 0%

SMILES: Cc1n[nH]c2cc(OCCNC[C@H](O)c3cccc(NS(=O)(=O)c4ccccc4N)c3)ccc12 [ex53, (R)-2-amino-N-(3-(1-hydroxy-2-(2-(3-methylindazol-6-yloxy)ethylamino)ethyl)phenyl) benzenesulfonamide]
- Emax [1]: 98%
- EC50 [1]: 4.1 nM
- Emax [2]: 14%
- Emax [3]: 2%
- Emax [4]: 0%

SMILES: Cc1n[nH]c2cc(OCCNC[C@H](O)c3cccc(NS(=O)(=O)c4ccccc4O)c3)ccc12 [ex241, (R)-2-hydroxy-N-(3-(1-hydroxy-2-(2-(3-methylindazol-6-yloxy)ethylamino)ethyl)phenyl)benzenesulfonamide]
- Emax [1]: 94%
- EC50 [1]: 43 nM
- Emax [2]: 9%
- Emax [3]: 8%
- Emax [4]: 0%
